How the values were obtained:
[1] = in vivo; cited from earlier work
[2] = human, in vivo

Q: With `CC[C@H](C)[C@@H]1NC(=O)[C@H](CCCNC(=N)N)NC(=O)[C@H](CC(=O)O)NC(=O)[C@H](CCSC)NC(=O)[C@H](CCCCN)NC(=O)[C@H](CCCNC(=N)N)NC(=O)CNC(=O)[C@H](Cc2ccccc2)NC(=O)[C@@H](NC(=O)CNC(=O)[C@H](CO)NC(=O)CNC(=O)[C@H](CCC(N)=O)NC(=O)[C@@H](NC(=O)[C@H](CCSC)NC(=O)[C@H](CCCCN)NC(=O)[C@@H]2CCCN2C(=O)[C@@H](N)CO)C(C)C)CSSC[C@@H](C(=O)N[C@@H](CCCCN)C(=O)N[C@H](C(=O)N[C@@H](CC(C)C)C(=O)N[C@@H](CCCN=C(N)N)C(=O)N[C@@H](CCCN=C(N)N)C(=O)N[C@@H](Cc2cnc[nH]2)C(=O)O)C(C)C)NC(=O)CNC(=O)[C@H](CC(C)C)NC(=O)CNC(=O)[C@H](CO)NC(=O)[C@H](CO)NC(=O)[C@H](CO)NC(=O)[C@H](CO)NC1=O` [nesiritide] as the compound, how does the “previously reported average half-life” value [1] read?
A: roughly 18 minutes

Q: And the Halflife [2]?
A: 14.4 min

Q: And the “increase in Clearance associated with genotype at rs6798179 (MME)” value ([2]; iv)?
A: roughly 50%

Q: And the “increase in K associated with genotype at rs6798179 (MME)” value ([2]; iv)?
A: roughly 50%

Q: And the “range of Adjusted BNP Clearance” value ([2]; iv)?
A: 0.1 to 67 mL/min

Q: And the “range of BNP Clearance” value ([2]; iv)?
A: 0.027 to 7.25 mL/min

Q: What about the “range of Half-life” value ([2]; iv) of the same compound?
A: 6.6 to 56.4 min

Q: And the “range of K” value ([2]; iv)?
A: 0.002-9.7

Q: And the “range of ΔBNP” value ([2]; iv)?
A: 14 to 7900 pg/mL

Q: And the “smaller change in BNP due to infusion associated with genotype at rs6798179 (MME)” value ([2]; iv)?
A: ~40%

— PMC4189182 (Journal of cardiac failure, 2014)
